How the values were obtained:
hypertensive patients [1] = experiment: Two separate studies: blood pressure change with HCTZ, Losartan and rostafuroxin in patients carrying profile 4, 8 or 9; format: in vivo, human; details: preliminary data
Source text: In particular, individuals carrying profile 4 show a modification in blood pressure of: −12.3±1.5 mmHg with HCTZ; −11.3±1.7 with Losartan and −18.74±1.8 mmHg with rostafuroxin; individuals with profile 8 show the a decrease in blood pressure of −11.3±1.2 with HCTZ; −11.6±1.3 with Losartan and −15.2±1.5 mmHg with rostafuroxin; individuals with profile 9 show the a decrease in blood pressure of −11.9±1.2 with HCTZ; −11.4±1.4 with Losartan and −15.2±1.5 mmHg with rostafuroxin.

[2] = Maximal tolerated dose without any effects (NOAEL) in animals; details: in vivo, read-out: maximal tolerated dose that does not produce any effects (NOAEL)
Na—K Pump and cSrc [3] = experiment: In vitro correction of the effect of mutated adducin or ouabain on Na-K pump and cSrc; format: biochemical; details: picomolar concentrations in vitro
Na—K Pump and cSrc [4] = experiment: Correction of the effect of mutated adducin or ouabain on Na-K pump and cSrc in animals; format: in vivo; details: nanomoles doses in animals
hypertensive patients [5] = experiment: Pharmacogenomic study: change of office systolic blood pressure (DSBP5_0) after 5 weeks of rostafuroxin vs placebo, by genotype; format: in vivo, human; details: 0.05 to 0.50 mg/day vs 1.5 to 5 mg/day

Structure (SMILES): C[C@]12CC[C@H](O)C[C@H]1CC[C@@H]1[C@@H]2CC[C@]2(C)[C@@](O)(c3ccoc3)CC[C@]12O [rostafuroxin, 17β-(3-furyl)-5β-androstane-3β,14β,17α-triol]
- modification in blood pressure (hypertensive patients [1]; individuals carrying profile 4): −18.74±1.8 mmHg
- decrease in blood pressure (hypertensive patients [1]; individuals with profile 8): −15.2±1.5 mmHg
- decrease in blood pressure (hypertensive patients [1]; individuals with profile 9): −15.2±1.5 mmHg
- NOAEL [2]: 100 mg/kg
- correction of the effect of mutated adducin or ouabain on Na—K Pump and cSrc (Na—K Pump and cSrc [3]): able to selectively correct the effect of mutated adducin or ouabain on Na—K Pump and cSrc, without blocking the effect of wild adducin
- correction of the effect of mutated adducin or ouabain on Na—K Pump and cSrc (Na—K Pump and cSrc [4]): able to selectively correct the effect of mutated adducin or ouabain on Na—K Pump and cSrc, without blocking the effect of wild adducin
- drop of night blood pressure, low doses vs high doses (hypertensive patients [5]): relevantly higher drop of night blood pressure as compared to high doses

Reference: patent US9408854B2, “Methods and systems for pharmacogenomic treatment of cardiovascular conditions” (ROSTAQUO S.P.A., priority 2009, dated 2016)
